Reference: US20170044372A1, “CELL TRACKING REAGENTS AND THEIR METHODS OF USE” (LIFE TECHNOLOGIIES CORPORATION, priority 2014, published 2017)

System: HeLa cells
Experiment: CYQUANT Direct cytotoxicity / cell viability assay
Format: cell-based
Details: 96 well plate, labeled at 10 μM for 30 mins at 37° C. in LCIS, assayed on days 1, 2 and 3, compared to DMSO alone
Procedure: FIG. 2: Lack of cytotoxicity of Compound 10, as measured by the CYQUANT Direct (Thermo Fisher Scientific) method. Fluorescence on the Y-axis is proportional to cell population viability. HeLa cells plated in a 96 well plate were labeled with CELLTRACKER Red, Compound 10, or DMSO in Live Cell Imaging Solution (LCIS) at 10 μM concentration for 30 mins at 37° C. The LCIS was then aspirated from cells and complete media added for an overnight incubation. The following day (Day 1) cells were assayed for cytotoxicity using the CYQUANT Direct assay (Thermo Fisher Scientific).
A549, HeLa and U-2 OS cells were plated in a 24-well plate at a concentration of 2000 cells/well. Compound 10 was added at a final concentration of 10 μM in Live Cell Imaging Solution (Life Technologies Corporation, Carlsbad, Calif.) and incubated for 30-60 min at 37° C. Cells were washed in dPBS and the cell media was added. Cells were scanned using the scan routine on an EVOS FL Auto microscope (Thermo Fisher Scientific) for 10% of the middle of the well. The same scan routine was used on Days 2, 3 and 4 of growth. Cell viability was assessed using CYQUANT Direct (Thermo Fisher Scientific) using the same scan routine as described above. The results in HeLa cells can be seen in FIGS. 1 and 2.

CN(C)c1ccc2c(-c3ccc(C(=O)ON4C(=O)CCC4=O)cc3C(=O)O)c3ccc(=[N+](C)C)cc-3oc2c1 [Compound 10]
cytotoxicity as measured by the CYQUANT Direct method (fluorescence proportional to cell population viability): no cytotoxicity
